According to patent US20060035848A1, “Broad-spectrum inhibitor of viruses in the Flaviviridae family” (ZymeTx, Inc., priority 2004, published 2006):
In brackets after ≈: the same amount, converted by molar mass. Read-outs that look alike come from different tables or passages of the source.

How the values were obtained:
WNV [1] = test: Inhibition of CPE assay at time points after initiation (Table 2); assay type: cell-based, West Nile virus; details: for EC50: West Nile virus, 144 h, read-out: Inhibition of CPE assay EC50
[2] = test system: West Nile virus New York Isolate; test: CPE inhibition assay against West Nile virus New York isolate in Vero cells; assay type: cell-based
WNV [3] = test: Virus yield reduction (VYR) assay, West Nile virus; assay type: cell-based; details: for EC90: West Nile virus, read-out: Virus yield reduction assay EC90
[4] = Cytotoxicity in toxicity control wells of the WNV tests; assay type: cell-based; details: African green monkey, Vero 76 cells (kidney), uninfected toxicity control wells
[5] = test system: West Nile Virus ATCC VR-82 (strain B956); test: CPE inhibition assay against West Nile virus ATCC VR-82 (visual and neutral red reading); assay type: cell-based; details: Vero
in vitro [6] = details: African green monkey
in vitro [7] = details: bovine
[8] = test system: Banzi virus (BV), H 336 strain; test: microbe, parasite or virus in culture; assay type: cell-based; details: Vero
[9] = test system: Yellow fever virus (YFV), 17D strain; test: microbe, parasite or virus in culture; assay type: cell-based; details: Vero
WNV [10] = details: Morrey et al., 2002; cited from earlier work
[11] = test system: Bovine viral diarrhea virus (BVDV), TN131 strain; test: microbe, parasite or virus in culture; assay type: cell-based; details: Bovine viral diarrhea virus isolates and strains
in vitro [12] = details: African green monkey; remark: listed apart in the source
GAPDH mRNA = test: Cytotoxicity by GAPDH mRNA in HCV replicon-containing cells; details: FIG. 1B
[13] = 144 h, New York Isolate, Visual, Vero cells, 6 days post-virus exposure
[14] = New York Isolate, NR (Neutral red), Vero cells
[15] = ATCC VR-82 columns, NR (Neutral red)
[16] = New York Isolate columns, NR (Neutral red)
[17] = New York Isolate columns, Visual

Structure (SMILES) | EC50 (WNV [1]) [µg/mL] | EC50 [2, 13] [µg/mL] | EC50 [2, 14] [µg/mL] | EC90 (WNV [3]; 48 h) [µg/mL] | EC90 (WNV [3]; 144 h) [µg/mL] | CC50 at 6 days [4, 15] [µg/mL] | CC50 at 6 days ([4]; ATCC VR-82 columns, Visual) [µg/mL] | CC50 at 6 days [4, 16] [µg/mL] | CC50 at 6 days [4, 17] [µg/mL] | EC50 [5] [µg/mL] | EC50 ([5]; 144 h) [µg/mL] | CC50 (in vitro [6]) [µg/mL] | CC50 (in vitro [7]) [µg/mL] | EC50 [8] [µg/mL] | EC50 [9] [µg/mL] | EC50 [11] [µg/mL] | CC50 (in vitro [12]) [µg/mL] | other results
O=c1cnn([C@@H]2O[C@H](CO)[C@@H](O)[C@H]2O)c(=O)[nH]1 [6-aza-U, 6-azauridine, reference compound] | 3.1 (≈ 12.6 µM) | 0.9 (≈ 3.67 µM) | 1.6 (≈ 6.53 µM) | 1.6 (≈ 6.53 µM) | 431 (≈ 1760 µM) | > 100 | 85 (≈ 347 µM) | > 100 | 85 (≈ 347 µM) | 5 (≈ 20.4 µM) | 22 (≈ 89.7 µM) | – | – | – | – | – | – | CPE observed (WNV [1]; 8 days post-virus initiation, cells treated with any concentration): 100%; Effect of addition of fresh compound every 2 days on VYR (WNV [3]; day 6, compared to no addition of fresh compound): did not improve
NC(=O)c1ncn([C@@H]2O[C@H](CO)[C@@H](O)[C@H]2O)n1 [Ribavirin, reference compound] | – | – | – | – | – | – | – | – | – | – | – | > 100 | > 100 | 60 (≈ 246 µM) | 32 (≈ 131 µM) | 5 (≈ 20.5 µM) | > 100 | activity against WNV in tissue culture (WNV [10]): poor activity
Nc1nc(=O)n2ccn([C@@H]3O[C@H](CO)[C@@H](O)[C@H]3O)c2n1 [ZX-2401, 2-amino-8-(β-D-ribofuranosyl) imidazo [1,2-a]-s-triazine-4-one] | 15 (≈ 53 µM) | 9.5 (≈ 33.5 µM) | 8 (≈ 28.2 µM) | 3.3 (≈ 11.7 µM) | 40 (≈ 141 µM) | > 100 | > 100 | > 100 | > 100 | 3 (≈ 10.6 µM) | < 4.6 | > 100 | > 100 | 5 (≈ 17.7 µM) | 10 (≈ 35.3 µM) | 0.6 (≈ 2.12 µM) | > 100 | Toxicity by visual inspection of treated uninfected cultures (Vero cells): No toxicity; EC50 ([2]; MOI 1.6 × 10^−3, New York strain in Vero cells): 20 µg/mL (≈ 70.6 µM); EC50 ([2]; MOI 1.6 × 10^−4, New York strain in Vero cells): 12 µg/mL (≈ 42.4 µM); EC50 ([2]; MOI 5 × 10^−4, New York strain in Vero cells): 15 µg/mL (≈ 53 µM); EC50 ([2]; MOI 5 × 10^−5 (5 CCID50), New York strain in Vero cells): 15 µg/mL (≈ 53 µM); toxicity as measured by GAPDH mRNA levels (GAPDH mRNA): no toxicity
